Data taken from publication PMC8224802 (Pharmaceutics, 2021).

Key:
[1] = Microsomal protein binding by rapid equilibrium dialysis (HLM)
Procedure: A 200 μL spiked samples and 400 μL PBS were placed into the “sample” and “buffer” chambers of the RED device, respectively. After 4-h incubation to equilibrate between the buffer and plasma compartments, the RED plate was sampled from both compartments. The samples were matrix-matched for analysis by addition of either diluted plasma or buffer; (a) blank diluted plasma added to the buffer samples and (b) blank buffer added to the diluted plasma sample, at a ratio of 50:50 v/v. The unbound fractions in microsomes and diluted plasma were determined by dividing the analyte/IS peak area ratios of the (a) sample by those of the (b) sample. The unbound fraction in diluted plasma (fu,d) was converted to the unbound fraction in undiluted plasma (fu) using a Kalvass equation as below (DF: dilution factor). (1) fu=1/DF/[(1/fu,d)−1]+1/DF

[2] = Blood-to-plasma concentration ratio (human whole blood); type: in vitro ADME; conditions: RPG and QCT 5 μM each
Procedure: A plasma sample was obtained by centrifugation of the blood sample at 2000× g for 5 min.

[3] = tested on: microsomal metabolism of RPG in HLM; assay: In vitro inhibition of RPG metabolism by QCT in HLM; type: in vitro ADME, human; conditions: HLM
Procedure: The intrinsic metabolic clearance (CLint) was calculated as Vmax/Km. […] The parameter α is indicative of the inhibition type. The mixed model is a general equation that includes competitive, uncompetitive, and noncompetitive inhibition as special cases. When α = 1, the mixed model is identical to a noncompetitive inhibition. When α is very large (α→∞) or very small (α→0), the mixed model becomes identical to competitive inhibition or uncompetitive inhibition, respectively.

Change of fuMIC of RPG by the presence of QCT ([1]; HLM, RPG and QCT 5 μM each): not significantly altered
fraction unbound at 4 h, 5 μM ([1]; human, liver microsomes): 0.62 ± 0.152
Change of RB of RPG by the presence of QCT [2]: not significantly altered
Km of RPG metabolism in the Ki estimation study ([3]; QCT 0 μM): 23 µM
Km of RPG metabolism in the Ki estimation study ([3]; QCT 200 μM): 111 µM
Compound: CCOc1cc(CC(=O)N[C@@H](CC(C)C)c2ccccc2N2CCCCC2)ccc1C(=O)O [RPG, Repaglinide]
